Measurements published in patent publication US7816522B2, “Triazolone derivatives” (Eisai Co., Ltd., priority 2006, dated 2010).

biological target: T1, human clotting factor VIIa (Homo sapiens, UniProt P08709); test: Inhibitory activity against clotting factor VIIa (chromogenic substrate Spectrozyme FVIIa, TF/Factor VIIa enzyme solution); format: biochemical; conditions: human Factor VIIa 5 nmol/L with human TF 10 nmol/L, room temperature 40 minutes, 405 nm
T1 construct: a human clotting factor VIIa (hereinafter, “Factor VIIa”) purified sample; purchased Enzyme Research Laboratories HFVIIa
T1 sequence (P08709 213-466 limits assumed): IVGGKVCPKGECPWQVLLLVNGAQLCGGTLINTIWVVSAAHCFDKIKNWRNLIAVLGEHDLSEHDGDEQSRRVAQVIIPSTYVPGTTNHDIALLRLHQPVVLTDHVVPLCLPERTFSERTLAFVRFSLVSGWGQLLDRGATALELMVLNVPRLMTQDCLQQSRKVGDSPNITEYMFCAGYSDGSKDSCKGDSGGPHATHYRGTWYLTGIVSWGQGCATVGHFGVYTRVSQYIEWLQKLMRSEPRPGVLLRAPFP
T1 sequence (P08709 61-212 limits assumed): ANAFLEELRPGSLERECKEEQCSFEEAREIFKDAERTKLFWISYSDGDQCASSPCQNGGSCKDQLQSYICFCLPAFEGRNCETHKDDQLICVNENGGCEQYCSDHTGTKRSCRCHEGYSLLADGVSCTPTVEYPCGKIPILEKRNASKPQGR
T1 sequence (P13726 33-295 partner): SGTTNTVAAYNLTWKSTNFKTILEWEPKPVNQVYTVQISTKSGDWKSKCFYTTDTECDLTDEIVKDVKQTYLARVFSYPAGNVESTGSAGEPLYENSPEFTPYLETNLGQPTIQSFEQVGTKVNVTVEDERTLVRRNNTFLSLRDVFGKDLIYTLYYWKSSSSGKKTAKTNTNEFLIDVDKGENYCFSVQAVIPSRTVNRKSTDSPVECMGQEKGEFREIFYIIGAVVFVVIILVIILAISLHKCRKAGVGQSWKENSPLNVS
Outline: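 Human Factor VIIa (5 nmol/L) with human TF (10 nmol/L) in Tris-BSA buffer pH 7.4 containing 15 mmol/L CaCl2 and cephalin, with Spectrozyme FVIIa substrate. Reaction 40 min at room temperature; 4-nitroanilide read at 405 nm. IC50 by non-linear regression over 100 μmol/L–0.1 nmol/L.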

First: COc1cc(C(Nc2ccc(C(=N)N)cc2)c2nn(-c3ncccc3N)c(=O)[nH]2)cnc1OC (racemic) [Example 186, 4-{[(R) and (S)-[1-(3-Aminopyridin-2-yl)-5-oxo-4,5-dihydro-1H-[1,2,4]triazol-3-yl]-(5,6-dimethoxypyridin-3-yl)methyl]amino}benzamidine acetate]
Second: COCCOc1cc(OC)cc(C(Nc2ccc(C(=N)N)cc2)c2nn(-c3ncccc3N)c(=O)[nH]2)c1F (racemic) [Example 203, 4-({(R) and (S)-[1-(3-Aminopyridin-2-yl)-5-oxo-4,5-dihydro-1H-[1,2,4]triazol-3-yl]-[2-fluoro-5-methoxy-3-(2-methoxyethoxy)phenyl]methyl}amino)benzamidine acetate]
The IC50 of the first is 1.8-fold lower: 4.6 nM for the first, 8.5 nM for the second.

First: COc1cc(C(Nc2ccc(C(=N)N)cc2)c2nn(-c3ncsc3C(=O)O)c(=O)[nH]2)c(F)c2c1OCCC2 (racemic) [Example 190, 4-{3-[(R) and (S)-(4-Carbamimidoylphenylamino)-(5-fluoro-8-methoxychroman-6-yl)methyl]-5-oxo-4,5-dihydro-[1,2,4]triazol-1-yl}thiazole-5-carboxylic acid]
Second: COc1cc(C(Nc2ccc(C(=N)N)cc2)c2nn(-c3ccsc3C(=O)O)c(=O)[nH]2)c(F)c2c1OCCC2 (racemic) [Example 222, 3-{3-[(4-Carbamimidoylphenylamino)-(5-fluoro-8-methoxychroman-6-yl)methyl]-5-oxo-4,5-dihydro-[1,2,4]triazol-1-yl}thiophene-2-carboxylic acid]
The IC50 of the first is 2.9-fold higher: 7.9 nM for the first, 2.7 nM for the second.

Compared with `COc1ccc(C(Nc2ccc(C(=N)N)cc2)c2nn(-c3ncsc3C(=O)O)c(=O)[nH]2)cc1OC` (racemic) [Example 193, (R) and (S)-4-{3-[(4-Carbamimidoylphenylamino)-(3,4-dimethoxyphenyl)methyl]-5-oxo-4,5-dihydro-[1,2,4]triazol-1-yl}-thiazole-5-carboxylic acid], `COCCOc1ccc(C(Nc2ccc(C(=N)N)cc2)c2nn(-c3ccsc3C(=O)O)c(=O)[nH]2)cc1OC` (racemic) [Example 195, 3-(3-{(R) and (S)-(4-Carbamimidoylphenylamino)-[3-methoxy-4-(2-methoxyethoxy)phenyl]methyl}-5-oxo-4,5-dihydro-[1,2,4]triazol-1-yl)thiophene-2-carboxylic acid] is 2.5-fold lower in IC50: 15.7 nM for the first, 6.2 nM for the second.

`COc1cc(F)c(C(Nc2ccc(C(=N)N)cc2)c2nn(-c3[nH]ncc3C(=O)O)c(=O)[nH]2)cc1OC` (racemic) [Example 194, (R) and (S)-5-{3-[(4-Carbamimidoylphenylamino)-(2-fluoro-4,5-dimethoxyphenyl)methyl]-5-oxo-4,5-dihydro-[1,2,4]triazol-1-yl}-1H-pyrazole-4-carboxylic acid acetate] and `COc1cc(C(Nc2ccc(C(=N)N)cc2)c2nn(-c3ncccn3)c(=O)[nH]2)c(F)cc1OCCO` (racemic) [Example 208, 4-{[(R) and (S)-[2-Fluoro-4-(2-hydroxyethoxy)-5-methoxyphenyl]-(5-oxo-1-pyrimidin-2-yl-4,5-dihydro-1H-[1,2,4]triazol-3-yl)methyl]amino}benzamidine acetate] are within 1.5-fold of each other in IC50: 74.5 nM for the first, 85.6 nM for the second.

Going from `COc1cc(OCCO)c(F)c(C(Nc2ccc(C(=N)N)cc2)c2nn(-c3ncc[nH]c3=O)c(=O)[nH]2)c1` (racemic) [Example 199, (R) and (S)-4-({[2-Fluoro-3-(2-hydroxyethoxy)-5-methoxyphenyl]-[5-oxo-1-(3-oxo-3,4-dihydropyrazin-2-yl)-4,5-dihydro-1H-[1,2,4]triazol-3-yl]methyl}amino)benzamidine acetate] to `COc1cc(OCCO)c(F)c(C(Nc2ccc(C(=N)N)cc2)c2nn(-c3ncccc3N)c(=O)[nH]2)c1` (racemic) [Example 201, 4-({(R) and (S)-[1-(3-Aminopyridin-2-yl)-5-oxo-4,5-dihydro-1H-[1,2,4]triazol-3-yl]-[2-fluoro-3-(2-hydroxyethoxy)-5-methoxyphenyl]methyl}amino)benzamidine acetate], the IC50 falls from 24.1 nM to 7.8 nM (3.1-fold).

Going from `CCc1cc(OCCCO)c(F)c(C(Nc2ccc(C(=N)N)cc2)c2nn(-c3ncccc3N)c(=O)[nH]2)c1` (racemic) [Example 205, (R) and (S)-4-({[1-(3-Aminopyridin-2-yl)-5-oxo-4,5-dihydro-1H-[1,2,4]triazol-3-yl]-[5-ethyl-2-fluoro-3-(3-hydroxypropoxy)phenyl]methyl}amino)benzamidine acetate] to `CCOc1cc(OCCO)c(F)c(C(Nc2ccc(C(=N)N)cc2)c2nn(-c3ncccn3)c(=O)[nH]2)c1` (racemic) [Example 219, (R) and (S)-4-{[[5-Ethoxy-2-fluoro-3-(2-hydroxyethoxy)phenyl]-(5-oxo-1-pyrimidin-2-yl-4,5-dihydro-1H-[1,2,4]triazol-3-yl)methyl]amino}benzamidine acetate], the IC50 rises from 2.3 nM to 9.5 nM (4.1-fold). The first is the more potent here.

Going from `COc1cc(C(Nc2ccc(C(=N)N)cc2)c2nn(-c3ccsc3C(=O)O)c(=O)[nH]2)ccc1OCCCO` (racemic) [Example 206, 3-(3-{(R) and (S)-(4-Carbamimidoylphenylamino)-[4-(3-hydroxypropoxy)-3-methoxyphenyl]methyl}-5-oxo-4,5-dihydro-[1,2,4]triazol-1-yl)thiophene-2-carboxylic acid] to `COc1cc(C(Nc2ccc(C(=N)N)cc2)c2nn(-c3ccsc3C(=O)O)c(=O)[nH]2)cc2c1OCOC2` (racemic) [Example 226, 3-{3-[(R) and (S)-(4-Carbamimidoylphenylamino)-(8-methoxy-4H-benzo[1,3]dioxin-6-yl)methyl]-5-oxo-4,5-dihydro-[1,2,4]triazol-1-yl}thiophene-2-carboxylic acid], the IC50 falls from 5.6 nM to 3.2 nM (1.7-fold). The second is the more potent here.

`COc1cc(C(Nc2ccc(C(=N)N)cc2)c2nn(-c3ccccc3C(N)=O)c(=O)[nH]2)cc2c1OCOC2` (racemic) [Example 211, 2-{3-[(4-Carbamimidoylphenylamino)-(8-methoxy-4H-benzo[1,3]dioxin-6-yl)methyl]-5-oxo-4,5-dihydro[1,2,4]triazol-1-yl}benzamide] and `COc1cc(C(Nc2ccc(C(=N)N)cc2)c2nn(-c3ccccc3C(N)=O)c(=O)[nH]2)cc2c1OCCCO2` (racemic) [Example 214, (R) and (S)-2-{3-[(4-Carbamimidoylphenylamino)-(9-methoxy-3,4-dihydro-2H-benzo[b][1,4]dioxepin-7-yl)methyl]-5-oxo-4,5-dihydro[1,2,4]triazol-1-yl}benzoic acid amide acetate] are within 1.5-fold of each other in IC50: 4.7 nM for the first, 3.5 nM for the second.

`C#Cc1cc(OCCO)cc(C(Nc2ccc(C(=N)N)cc2)c2nn(-c3ncccn3)c(=O)[nH]2)c1` (racemic) [Example 212, 4-{[[3-Ethynyl-5-(2-hydroxyethoxy)phenyl]-(5-oxo-1-pyrimidin-2-yl-4,5-dihydro-1H-[1,2,4]triazol-3-yl)methyl]amino}benzamidine] and `CCOc1cc(OCCO)cc(C(Nc2ccc(C(=N)N)cc2)c2nn(-c3ncccn3)c(=O)[nH]2)c1` (racemic) [Example 220, 4-{[[3-Ethoxy-5-(2-hydroxyethoxy)phenyl]-(5-oxo-1-pyrimidin-2-yl-4,5-dihydro-1H-[1,2,4]triazol-3-yl)methyl]amino}benzamidine] are within 1.5-fold of each other in IC50: 5.7 nM for the first, 7.2 nM for the second.

First: COc1cc(C(Nc2ccc(C(=N)N)cc2)c2nn(-c3ccccn3)c(=O)[nH]2)cc2c1OCOC2 (racemic) [Example 213, (R) and (S)-4-{[(8-Methoxy-4H-benzo[1,3]dioxin-6-yl)-(5-oxo-1-pyridin-2-yl-4,5-dihydro-1H-[1,2,4]triazol-3-yl)methyl]amino}benzamidine acetate]
Second: COc1cc(C(Nc2ccc(C(=N)N)cc2)c2nn(-c3ncccn3)c(=O)[nH]2)cc2c1OCC(=O)N2CCF (racemic) [Example 223, 4-{[[4-(2-Fluoroethyl)-8-methoxy-3-oxo-3,4-dihydro-2H-benzo[1,4]oxazin-6-yl]-(5-oxo-1-pyrimidin-2-yl-4,5-dihydro-1H-[1,2,4]triazol-3-yl)methyl]amino}benzamidine]
The IC50 of the first is 4.1-fold lower: 3.3 nM for the first, 13.4 nM for the second.

`COc1cc(C(Nc2ccc(C(=N)N)cc2)c2nn(-c3ccsc3C(=O)O)c(=O)[nH]2)c(F)c2c1OCC2` (racemic) [Example 215, (R) and (S)-3-{3-[(4-Carbamimidoylphenylamino)-(4-fluoro-7-methoxy-2,3-dihydrobenzofuran-5-yl)methyl]-5-oxo-4,5-dihydro[1,2,4]triazol-1-yl}thiophene-2-carboxylic acid] and `COc1cc(O[C@@H](C)CO)c(F)c(C(Nc2ccc(C(=N)N)cc2)c2nn(-c3ncccn3)c(=O)[nH]2)c1` (mixture of isomers) [Example 217, (R) and (S)-4-{[[2-Fluoro-3-((S)-2-hydroxy-1-methylethoxy)-5-methoxyphenyl]-(5-oxo-1-pyrimidin-2-yl-4,5-dihydro-1H-[1,2,4]triazol-3-yl)methyl]amino}benzamidine acetate] are within 1.5-fold of each other in IC50: 3.4 nM for the first, 3.1 nM for the second.

Going from `COc1cc(OCCO)c(F)c(C(Nc2ccc(C(=N)N)c(F)c2)c2nn(-c3ncccn3)c(=O)[nH]2)c1` (racemic) [Example 218, 2-Fluoro-4-{[[2-fluoro-3-(2-hydroxyethoxy)-5-methoxyphenyl]-(5-oxo-1-pyrimidin-2-yl-4,5-dihydro-1H-[1,2,4]triazol-3-yl)methyl]amino}benzamidine] to `CCOc1cc(O)cc(C(Nc2ccc(C(=N)N)cc2)c2nn(-c3ncccn3)c(=O)[nH]2)c1` (racemic) [Example 221, 4-{[(3-Ethoxy-5-hydroxyphenyl)-(5-oxo-1-pyrimidin-2-yl-4,5-dihydro-1H-[1,2,4]triazol-3-yl)methyl]amino}benzamidine], the IC50 falls from 52.4 nM to 25.8 nM (2-fold).

`COc1cc(OC)cc(C(Nc2ccc(C(=N)N)cc2)c2nn(-c3ncccc3C)c(=O)[nH]2)c1` (racemic) [Example 225, (R) and (S)-4-({(3,5-Dimethoxyphenyl)-[1-(3-methylpyridin-2-yl)-5-oxo-4,5-dihydro-1H-[1,2,4]triazol-3-yl]methyl}amino)benzamidine acetate] showed an IC50 of 3.7 nM.
